Source: ChEMBL document CHEMBL2203227, “Macrocycles are great cycles: applications, opportunities, and challenges of synthetic macrocycles in drug discovery” (J Med Chem, 2011)
Each block holds one compound with its values, some of them ahead of it. *1 amine or outer side, *2 acyl side, *3 side chain or, on linkers, in order; H or OH if unused. Where a SMILES comes first, the peptide text is derived from it. [ ]: non-standard residue; d: D form. The star is where a group is joined. LeuΨ(S-CHOHCH2)Ala = CC(C)C[C@H](N[*:1])[C@@H](O)C[C@@H](C)C(=O)[*:2]; Hyp = O=C(O)[C@@H]1C[C@@H](O)CN1; Nva = CCC[C@H](N)C(=O)O; Bn = c1ccc(C*)cc1

Columns and labels:
[1] = Inhibition of HCV NS3 protease; design: species or system Hepacivirus hominis
Renin = molecular target: T1, Renin (Homo sapiens, UniProt P00797); assay: Inhibition of renin
T1 sequence (P00797 whole entry): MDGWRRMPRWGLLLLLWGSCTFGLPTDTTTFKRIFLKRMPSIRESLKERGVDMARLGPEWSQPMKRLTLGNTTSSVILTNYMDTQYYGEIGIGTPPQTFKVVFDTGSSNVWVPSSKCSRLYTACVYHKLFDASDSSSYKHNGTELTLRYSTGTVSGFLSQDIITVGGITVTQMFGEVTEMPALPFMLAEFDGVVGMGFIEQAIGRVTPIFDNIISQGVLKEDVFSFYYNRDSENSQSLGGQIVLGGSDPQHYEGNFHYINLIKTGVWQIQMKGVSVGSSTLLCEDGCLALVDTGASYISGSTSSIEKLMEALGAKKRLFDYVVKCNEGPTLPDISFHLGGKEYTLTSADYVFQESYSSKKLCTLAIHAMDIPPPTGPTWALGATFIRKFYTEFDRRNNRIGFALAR

[2] = Inhibition of HIV protease; design: species or system Human immunodeficiency virus
[3] = molecular target: Sonic hedgehog protein (Mus musculus) (UniProt Q62226); assay: Inhibition of sonic hedgehog pathway in mouse NIH-3T3 cells relative to control; format: cell-based; conditions: NIH3T3
Prothrombin = Prothrombin (Homo sapiens, UniProt P00734); assay: Inhibition of thrombin
[4] = Selectivity ratio of IC50 for tPa to IC50 for thrombin
[5] = Selectivity ratio of IC50 for trypsin to IC50 for thrombin
Beta-secretase 1 = Beta-secretase 1 (Homo sapiens, UniProt P56817); assay: Inhibition of BACE1
Sequence of Beta-secretase 1 (P56817 whole entry): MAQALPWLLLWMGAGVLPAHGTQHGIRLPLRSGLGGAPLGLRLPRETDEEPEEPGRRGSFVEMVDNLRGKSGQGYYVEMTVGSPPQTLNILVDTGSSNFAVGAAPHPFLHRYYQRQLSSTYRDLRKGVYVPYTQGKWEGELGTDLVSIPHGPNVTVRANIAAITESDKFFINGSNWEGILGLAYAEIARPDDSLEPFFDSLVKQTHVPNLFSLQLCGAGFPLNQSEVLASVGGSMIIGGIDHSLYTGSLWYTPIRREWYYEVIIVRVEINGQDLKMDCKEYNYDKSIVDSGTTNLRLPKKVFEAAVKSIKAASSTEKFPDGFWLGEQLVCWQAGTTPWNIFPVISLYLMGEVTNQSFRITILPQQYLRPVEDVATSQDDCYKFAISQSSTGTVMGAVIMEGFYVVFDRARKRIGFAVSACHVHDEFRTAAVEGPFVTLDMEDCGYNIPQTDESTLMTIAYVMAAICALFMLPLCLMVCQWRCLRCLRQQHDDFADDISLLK

[6] = Inhibition of FTase
[7] = Reversible inhibition of HCV NS3 protease; design: species or system Hepacivirus hominis
[8] = molecular target: Growth hormone secretagogue receptor type 1 (Homo sapiens, UniProt Q92847); assay: Agonist activity at ghrelin receptor; format: functional
Sequence of Growth hormone secretagogue receptor type 1 (Q92847 whole entry): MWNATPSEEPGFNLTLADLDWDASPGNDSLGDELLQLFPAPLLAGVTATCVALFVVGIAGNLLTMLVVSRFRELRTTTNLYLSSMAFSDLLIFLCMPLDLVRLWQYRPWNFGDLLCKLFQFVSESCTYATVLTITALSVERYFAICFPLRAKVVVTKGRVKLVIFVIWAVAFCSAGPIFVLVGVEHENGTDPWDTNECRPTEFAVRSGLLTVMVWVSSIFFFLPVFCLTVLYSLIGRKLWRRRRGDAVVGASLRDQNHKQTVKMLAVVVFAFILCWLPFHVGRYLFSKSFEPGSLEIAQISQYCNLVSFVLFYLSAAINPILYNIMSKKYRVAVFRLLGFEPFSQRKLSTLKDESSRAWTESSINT

[9] = Oral bioavailability in rat; format: ADME, organism-based; conditions: in vivo
[10] = Inhibition of HCV 3a NS3 protease; design: species or system Hepatitis C virus subtype 3a
Hepatitis C virus [11] = assay: microbe, parasite or virus in culture
Description: Antiviral activity against HCV by cell based replicon assay

Hepatitis C virus [12] = assay: Inhibition of HCV 1b NS3 protease; design: species or system Hepatitis C virus subtype 1b
[13] = Inhibition of HDAC by fluorimetry assay
[14] = Inhibition of GGTase
[15] = Half life in dog; format: ADME, organism-based, Canis lupus familiaris; conditions: in vivo
[16] = molecular target: Ras-related protein Rap-1A (Homo sapiens, UniProt P62834); assay: Inhibition of Rap1a
Sequence of Ras-related protein Rap-1A (P62834 whole entry): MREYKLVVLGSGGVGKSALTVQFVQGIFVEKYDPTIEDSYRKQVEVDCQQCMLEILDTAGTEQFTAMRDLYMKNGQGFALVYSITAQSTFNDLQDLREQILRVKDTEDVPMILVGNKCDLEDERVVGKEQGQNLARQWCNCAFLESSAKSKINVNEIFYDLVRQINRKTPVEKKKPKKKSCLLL

GTPase KRas = GTPase KRas (Homo sapiens, UniProt P01116); assay: Inhibition of Ki-Ras
Sequence of GTPase KRas (P01116 whole entry): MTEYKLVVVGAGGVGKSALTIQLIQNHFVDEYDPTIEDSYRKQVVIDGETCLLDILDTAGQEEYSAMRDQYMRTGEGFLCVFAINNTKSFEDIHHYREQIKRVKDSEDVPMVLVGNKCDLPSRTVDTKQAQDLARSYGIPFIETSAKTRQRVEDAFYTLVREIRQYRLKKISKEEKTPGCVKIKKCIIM

[17] = molecular target: DnaJ homolog subfamily A member 1 (Homo sapiens, UniProt P31689); assay: Inhibition of HDJ2
Sequence of DnaJ homolog subfamily A member 1 (P31689 whole entry): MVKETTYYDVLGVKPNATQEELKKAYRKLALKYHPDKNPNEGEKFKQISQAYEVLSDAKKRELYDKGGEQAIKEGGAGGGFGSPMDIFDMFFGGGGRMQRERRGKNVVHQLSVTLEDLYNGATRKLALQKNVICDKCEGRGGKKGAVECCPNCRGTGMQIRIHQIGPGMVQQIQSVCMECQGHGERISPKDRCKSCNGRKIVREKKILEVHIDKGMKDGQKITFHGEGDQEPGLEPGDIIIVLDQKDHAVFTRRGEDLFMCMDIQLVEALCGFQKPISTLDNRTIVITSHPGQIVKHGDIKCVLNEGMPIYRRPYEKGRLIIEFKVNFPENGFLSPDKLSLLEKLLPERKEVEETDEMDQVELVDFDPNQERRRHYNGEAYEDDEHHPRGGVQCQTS

Structure (SMILES): CCC[C@H](NC(=O)[C@@H]1C[C@@H](OCc2ccccc2)CN1C(=O)[C@@H](NC(=O)[C@@H](NC(=O)[C@H](CC(=O)O)NC(=O)[C@H](CC(=O)O)NC(C)=O)[C@@H](C)CC)C(C)C)C(=O)O (Ac-DDIV[Hyp](Bn)[Nva]-OH)
IC50 [1]: 7000 nM

Structure (SMILES): O=C1COc2ccc(Cl)cc2CNC(=O)[C@@H]2CCCN2C(=O)[C@@H](C2CCCCC2)NC(=O)CCCCN1
Ki (Prothrombin): 0.4 nM
Ratio IC50 [4]: > 2000
Ratio IC50 [5]: > 2000

Structure (SMILES): CC(C)CN(C[C@@H](O)[C@H](Cc1ccccc1)NC(=O)O[C@H]1CO[C@H]2OCC[C@H]21)S(=O)(=O)c1ccc(N)cc1
Ki [2]: 0.015 nM

Structure (SMILES): CC(C)C[C@H](NC(=O)[C@H](CC(N)=O)NC(=O)[C@H](C)NC(=O)[C@@H](N)CCC(=O)O)[C@@H](O)C[C@@H](C)C(=O)N[C@@H](C)C(=O)N[C@@H](CCC(=O)O)C(=O)N[C@@H](Cc1ccccc1)C(=O)O (H-EAN[LeuΨ(S-CHOHCH2)Ala]AEF-OH)
IC50 (Beta-secretase 1): 1.6 nM

Structure (SMILES): Cc1ncn(Cc2ccc(C#N)cc2)c1CN1CC(=O)N(c2cccc(Cl)c2)C[C@@H]1CCS(C)(=O)=O
IC50 [6]: 475 nM

Structure (SMILES): CC[C@H](C)[C@H](NC(=O)[C@@H](NC[C@@H]1COCCCN(C(=O)[C@H](Cc2ccccc2)NC(=O)OC(C)(C)C)[C@@H](C)C(=O)N1)C(C)C)C(=O)N[C@@H](Cc1cnc[nH]1)C(=O)OC
IC50 (Renin): > 100000 nM

Structure (SMILES): O=C(CCCCCC1C2=NC(Cc3ccccc3)=C(O2)C(Cc2ccccc2)CCn2cc(nn2)CCCN1Cc1ccccc1)NO (centres undefined)
IC50 [13]: 4300 nM

Structure (SMILES): O=C(CCCCCC1C2=NC(Cc3ccccc3)=C(O2)C(Cc2ccccc2)CCCCn2cc(nn2)CCCN1Cc1ccccc1)NO (centres undefined)
IC50 [13]: 6100 nM

Structure (SMILES): N#Cc1ccc2cc1Oc1ccc3cccc(c3c1)N1CCN(CC1=O)Cc1cncn1C2
IC50 [14]: 301 nM
half-life [15]: 1 h
EC50 [16]: > 10000 nM
EC50 (GTPase KRas): > 10000 nM
EC50 [17]: 2 nM
IC50 [6]: 0.1 nM

Structure (SMILES): N#Cc1ccccc1Oc1ccc2cccc(N3CCN(Cc4cnc[nH]4)CC3=O)c2c1
IC50 [6]: 4500 nM

Structure (SMILES): N#Cc1ccc2cc1Oc1ccc3c(c1)[C@@H](CC3)N1CC[C@@H](NCc3cncn3C2)C1=O
IC50 [14]: 18000 nM
IC50 [6]: < 1.6 nM

The next lines start with results.

IC50 (Renin): 0.29 nM
Structure (SMILES): CC[C@H](C)[C@H](NC(=O)[C@@H](C[C@H](O)[C@H](CC1CCCCC1)NC(=O)[C@@H]1Cc2cn(cn2)CC(=O)N2CCC[C@H]2C(=O)N[C@@H](Cc2ccccc2)C(=O)N1)C(C)C)C(=O)NCc1ccccn1

Ki [2]: 3 nM
Structure (SMILES): CC[C@H](C)[C@@H]1NC(=O)[C@@H](NC[C@@H](O)[C@@H]2Cc3ccc(cc3)OCCCCC(=O)N[C@@H](C(C)C)C(=O)N2)Cc2ccc(cc2)OCCCNC1=O

Emax [3]: 91%
Structure (SMILES): O=C(C[C@@H]1C/C=C/CCC(=O)O[C@H](c2ccccc2)CNC1=O)NCc1ccc(Cl)cc1

Ki [2]: 1.8 nM
Structure (SMILES): CC[C@H](C)[C@@H]1NC(=O)[C@@H](NC[C@@H](O)[C@H](Cc2ccc(O)cc2)NC[C@H](C(C)C)N2CCCC2=O)Cc2ccc(cc2)OCCCNC1=O

Ki [7]: 6 nM
Structure (SMILES): CN(C)C(=O)[C@@H](NC(=O)CNC(=O)C(=O)[C@@H]1CCCCCCCCCC[C@H](NC(=O)NC(C)(C)C)C(=O)N2C[C@H]3[C@@H]([C@H]2C(=O)N1)C3(C)C)c1ccccc1

EC50 [8]: 27 nM
bioavailability [9]: 16%
Structure (SMILES): C[C@@H]1CN[C@@H](C2CC2)C(=O)N(C)[C@H](C)C(=O)N[C@H](Cc2ccc(F)cc2)C(=O)NCCCc2ccccc2O1 [ULIMORELIN]

Ki [10]: 1.2 nM
EC50 (Hepatitis C virus [11]): 2 nM
Structure (SMILES): COc1cc2nc(-c3ccccc3)cc3c2cc1/C=C/CC(C)(C)COC(=O)N[C@H]1CCCCC/C=C\[C@@H]2C[C@@]2(C(=O)NS(=O)(=O)C2CC2)NC(=O)[C@@H]2C[C@H](CN2C1=O)O3
Ki (Hepatitis C virus [12]): 0.029 nM

Ratio IC50 [4]: > 2000
Ratio IC50 [5]: > 2000
Structure (SMILES): O=C1COc2ccc(Cl)cc2CNC(=O)[C@@H]2CCCN2C(=O)[C@@H](C2CCCCC2)NC(=O)CCCN1

IC50 [1]: 1 nM
Structure (SMILES): C=C[C@@H]1C[C@]1(NC(=O)[C@@H]1C[C@@H](Oc2cc(-c3ccccc3)nc3cc(OC)ccc23)CN1C(=O)[C@@H](NC(=O)[C@@H](NC(C)=O)C1CCCCC1)C(C)(C)C)C(=O)O

EC50 (Hepatitis C virus [11]): 6.7 nM
Ki [1]: < 0.016 nM
Structure (SMILES): C=C[C@@H]1C[C@]1(NC(=O)[C@@H]1C[C@@H]2CN1C(=O)[C@H](C(C)(C)C)NC(=O)OCCCCCc1ccc3nc(-c4ccccc4)cc(c3c1)O2)C(=O)NS(=O)(=O)C1CC1

Ki (Prothrombin): 0.09 nM
Ratio IC50 [4]: 7100
Ratio IC50 [5]: 23000
Structure (SMILES): O=C1Cn2c(Cl)cnc(c2=O)N[C@@H](Cc2ccccc2)CNCCCNCCOc2ccc(Cl)cc2CN1

IC50 [2]: 300 nM
Ki [2]: 0.7 nM
Structure (SMILES): COc1ccc(S(=O)(=O)N(CC(C)C)C[C@@H](O)[C@@H]2CCCCCCCCOc3c(O)cccc3C(=O)N2)cc1
